Here are results for four molecules from patent US20160175306A1, “COMBINATION OF A IMIDAZOPYRIDAZINE DERIVATIVE AND A MITOTIC AGENT FOR THE TREATMENT OF CANCER” (BAYER PHARMA AKTIENGESELLSCHAFT, priority 2013, published 2016).

pIC50: −log10 of the molar value. “And” between values parts separate entries of the source, which are not always exact repeats. Equal values may be shown once. Read-outs that look alike come from different tables or passages of the source. Marks after values point to notes of the source that are not given here.

In series [1] the test system is HeLa human cervical tumour cells. The experiment in a line: Proliferation Assay with HeLa cells. The conditions noted are these: 96 h, 4 days, crystal violet. In kind it is cell-based. Here is the method:
After 24 hours, the cells of one plate (zero-point plate) were stained with crystal violet (see below), while the medium of the other plates was replaced by fresh culture medium (200 μl), to which the test substances were added in various concentrations (0 μM, as well as in the range of 0.01-30 μM; the final concentration of the solvent dimethyl sulfoxide was 0.5%). The cells were incubated for 4 days in the presence of test substances. […] After three washing cycles of the fixed cells with water, the plates were dried at room temperature. The cells were stained by adding 100 μl/measuring point of a 0.1% crystal violet solution (pH 3.0). After three washing cycles of the stained cells with water, the plates were dried at room temperature. The dye was dissolved by adding 100 μl/measuring point of a 10% acetic acid solution. […] The change of cell number, in percent, was calculated by normalization of the measured values to the extinction values of the zero-point plate (=0%) and the extinction of the untreated (0 μm) cells (=100%). The IC50 values were determined by means of a 4 parameter fit using the company's own software.

Series [2] deals with spindle assembly checkpoint in HeLa cells (phosphorylated histone H3 on serine 10). The experiment in a line: Spindle Assembly Checkpoint Assay. The conditions noted are these: Homo sapiens, nocodazole 0.1 μg/ml, 4 h with compound. The series is classed as cell-based. From the text:
The spindle assembly checkpoint assures the proper segregation of chromosomes during mitosis. Upon entry into mitosis, chromosomes begin to condensate which is accompanied by the phosphorylation of histone H3 on serine 10. Dephosphorylation of histone H3 on serine 10 begins in anaphase and ends at early telophase. Accordingly, phosphorylation of histone H3 on serine 10 can be utilized as a marker of cells in mitosis. Nocodazole is a microtubule destabilizing substance. Thus, nocodazole interferes with microtubule dynamics and mobilises the spindle assembly checkpoint. […] An inhibition of the spindle assembly checkpoint by Mps-1 inhibitors overrides the mitotic blockage in the presence of nocodazole, and the cells complete mitosis prematurely. This alteration is detected by the decrease of cells with phosphorylation of histone H3 on serine 10. This decline is used as a marker to determine the capability of compounds of the present invention to induce a mitotic breakthrough.
Cultivated cells of the human cervical tumour cell line HeLa (ATCC CCL-2) were plated at a density of 2500 cells/well in a 384-well microtiter plate in 20 μl Dulbeco's Medium (w/o phenol red, w/o sodium pyruvate, w […] glucose, w pyridoxine) supplemented with 1% (v/v) glutamine, 1% (v/v) penicillin, 1% (v/v) streptomycin and 10% (v/v) fetal calf serum. After incubation overnight at 37° C., 10 μl/well nocodazole at a final concentration of 0.1 μg/ml were added to cells. After 24 h incubation, cells were arrested at G2/M phase of the cell cycle progression. […] Images were acquired with a Perkin Elmer OPERA™ High-Content Analysis reader. Images were analyzed with image analysis software MetaXpress™ from Molecular devices utilizing the Cell Cycle application module. In this assay both labels HOECHST 33342 and phosphorylated Histone H3 on serine 10 were measured. […] The raw assay data were further analysed by four parameter logistic regression analysis to determine the IC50 value for each tested compound.

The target of a further series is T1, human CYP3A4 (Homo sapiens, UniProt P08684).
T1 construct: Human liver microsomal preparation (pool of HLM) was applied for the assay; from tissue; host or cells: pooled human liver microsomes
Put plainly: Determination of inhibitory potential on human CYP3A4. The series is classed as in vitro ADME. The conditions noted are these: human liver microsomes, midazolam substrate; read-out: inhibition of liver enzyme CYP3A4. As for the experimental part:
Determination of Inhibitory Potential on Human CYP3A4
The potential of the test compound to act as a competitive inhibitor of CYP3A4 was evaluated in in vitro assays, using human liver microsomes and the reference substrate midazolam. The test compound was solved in acetonitrile. Human liver microsomal preparation (pool of HLM) was applied for the assay.
A stock solution of the test compound was added to phosphate buffer containing EDTA, NADP, glucose 6-phosphate, and glucose 6-phosphate dehydrogenase. This mixture was sequentially diluted on a Genesis Workstation (Tecan, Crailsheim, FRG). After pre-warming, reaction was initiated by addition of a mixture of probe substrate (midazolam). […] The reference samples (substrate, but no inhibitor) were incubated in parallel in sextuple and contained the same amount of solvent as the test incubations. Reactions were stopped by addition of 100 μL acetonitrile containing the internal standard. Precipitated proteins were removed by centrifugation of the well plate, supernatants were analyzed by LC-MS/MS.
The CYP3A4-mediated metabolic activity in the presence of the test compounds was expressed as percentages of the corresponding reference value. […]
In general terms: Microsomes from liver hold many membrane-bound enzymes, among them those of drug oxidation.

Series [3] deals with A2780cis human ovarian cancer xenograft model. The conditions noted are these: for T/C weight: mean final tumor weight. Here is the method:
In Vivo Anti-Tumor Efficacy of Mps-1 Kinase Inhibitors of the Present Invention in Combination with Paclitaxel in A2780cis Human Ovarian Cancer Model in Nude Mice
The effect of combination treatment of an Mps-1 kinase inhibitor of the present invention and paclitaxel was studied in the adaptive cisplatin-resistant and paclitaxel intrinsically resistant A2780cis xenograft model. […] Animal body weight and tumor size were determined three times weekly. Treatment for all groups started at a tumor size of 29 mm^2, at day 6 after tumor cell inoculation. […] At the end of the study after one final treatment plasma and tumors were sampled for PK analysis and final tumor weight was determined.

In series [4] the test system is NCI-H1299 human NSCLC xenograft model. As to conditions: for T/C weight: mean final tumor weight. From the text: In Vivo Anti-Tumor Efficacy of Mps-1 Kinase Inhibitors of the Present Invention in Combination with Paclitaxel in NCI-H1299 Human NSCLC Model in Nude Mice
The effect of combination treatment of an Mps-1 kinase inhibitor of the present invention and paclitaxel was studied in the NCI-H1299 taxane intrinsically resistant human lung carcinoma (NSCLC) xenograft model in nude mice. […] Substances were formulated in optimal vehicles to achieve solutions. Animal body weight and tumor size were determined three times weekly. Treatment for all groups started at a tumor size of 30 mm^2, at day 8 after tumor cell inoculation. […] At the end of the study after one final treatment plasma and tumors were sampled for PK analysis and final tumor weight was determined.

The mark [5] stands for this setting: Compound A27 2 mg/kg 2QD 2on/5off p.o.
[6] abbreviates: Compound A27 3 mg/kg 2QD 2on/5off p.o.
[7] abbreviates: Paclitaxel 20/15 (d19) mg/kg QD 2on/6off i.v.
The mark [8] stands for this setting: Paclitaxel 20/15 (d19) mg/kg QD 2on/6off i.v., relative tumor area at control dosing stop.

T1 sequence (P08684 whole entry): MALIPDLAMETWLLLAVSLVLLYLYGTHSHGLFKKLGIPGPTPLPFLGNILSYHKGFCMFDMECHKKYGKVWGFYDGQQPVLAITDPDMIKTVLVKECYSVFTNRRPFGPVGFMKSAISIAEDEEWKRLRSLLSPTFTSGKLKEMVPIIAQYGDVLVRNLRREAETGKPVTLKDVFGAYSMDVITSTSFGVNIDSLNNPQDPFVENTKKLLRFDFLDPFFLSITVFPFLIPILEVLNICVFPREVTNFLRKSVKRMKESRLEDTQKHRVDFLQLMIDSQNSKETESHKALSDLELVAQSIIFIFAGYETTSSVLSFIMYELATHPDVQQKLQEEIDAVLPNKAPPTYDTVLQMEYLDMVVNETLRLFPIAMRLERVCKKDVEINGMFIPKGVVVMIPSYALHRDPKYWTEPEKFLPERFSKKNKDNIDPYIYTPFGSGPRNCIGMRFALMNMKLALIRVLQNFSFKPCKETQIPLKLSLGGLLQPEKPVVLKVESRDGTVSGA

With `COc1ccc(Oc2cc(NCC3COC3)c3ncc(-c4ccc(C(=O)NC5CC5)c(C)c4)n3n2)cc1F` [Compound A26, N-cyclopropyl-4-{6-(3-fluoro-4-methoxyphenoxy)-8-[(oxetan-3-ylmethyl)amino]imidazo[1,2-b]pyridazin-3-yl}-2-methylbenzamide], the results for the pIC50 (in series [1]; in series [2]; at human CYP3A4) were more than 7.60, more than 9.00 and not above 5.30, respectively.

Consider `COc1ccc(Oc2cc(NCCC(F)(F)F)c3ncc(-c4ccc(C(=O)NC5CC5)c(C)c4)n3n2)c(F)c1F` [Compound A27, N-cyclopropyl-4-{6-(2,3-difluoro-4-methoxyphenoxy)-8-[(3,3,3-trifluoropropyl)amino]imidazo[1,2-b]pyridazin-3-yl}-2-methylbenzamide], for which the “Fatal Tox” value in series [3] (setting [5]), in series [3] (setting [6]), in series [4] (setting [5]) and in series [4] (setting [6]) was 0/10 throughout. Further, the T/C weight in series [3] (setting [5]) is on record as 0.98; in series [3] (setting [6]) it was 0.88; in series [4] (setting [5]), 1.18; in series [4] (setting [6]), 0.74. For the same molecule, the T/C area was 1.00 in series [3] (Compound A27 2 mg/kg 2QD 2on/5off p.o., relative tumor area at control dosing stop (15 treatment days)); 0.90 in series [3] (Compound A27 3 mg/kg 2QD 2on/5off p.o., relative tumor area at control dosing stop (15 treatment days)); 0.99 and 0.98 in series [4] (Compound A27 2 mg/kg 2QD 2on/5off p.o., relative tumor area at control dosing stop (22 treatment days)); 0.64 in series [4] (Compound A27 3 mg/kg 2QD 2on/5off p.o., relative tumor area at control dosing stop (22 treatment days)). The pIC50 in series [2] was more than 9.00.

Turning to `COc1ccc(Oc2cc(NCC3CCOCC3)c3ncc(-c4ccc(C(=O)NC5CC5)c(C)c4)n3n2)c(F)c1F` [Compound A28, N-cyclopropyl-4-{6-(2,3-difluoro-4-methoxyphenoxy)-8-[(tetrahydro-2H-pyran-4-ylmethyl)amino]imidazo[1,2-b]pyridazin-3-yl}-2-methylbenzamide], the pIC50 in series [1] was more than 7.60; in series [2], more than 9.00; on human CYP3A4, not above 5.30.

On to `CC(=O)O[C@H]1C(=O)[C@@]2(C)[C@H]([C@H](OC(=O)c3ccccc3)[C@]3(O)C[C@H](OC(=O)[C@H](O)[C@@H](NC(=O)c4ccccc4)c4ccccc4)C(C)=C1C3(C)C)[C@]1(OC(C)=O)CO[C@@H]1C[C@@H]2O` [Paclitaxel, (2α,4α,5β,7β,10β,13α)-4,10-bis(acetyloxy)-13-{[(2R,3S)-3-(benzoylamino)-2-hydroxy-3-phenylpropanoyl]oxy}-1,7-dihydroxy-9-oxo-5,20-epoxytax-11-en-2-yl benzoate, reference compound], for which the “Fatal Tox” value in series [3] (setting [7]) and in series [4] (setting [7]) was 0/10 in each case. In addition, the T/C area in series [3] (setting [8]) was 0.06^#; in series [4] (setting [8]), 0.13^#; in series [4] (Paclitaxel 20/15 (d19) mg/kg QD 2on/6off i.v., relative tumor area at control dosing stop, listed as paclitaxel) it was 0.13. In addition, the “Max. Body weight loss” value was −0.7% in series [3] (mouse, in vivo, iv) and −1.9% in series [4] (mouse, in vivo, iv).
